Measured values reported in patent US11319295B2, “Substituted phenyloxetane and phenyltetrahydrofuran compounds as indoleamine 2,3-dioxygenase (IDO) inhibitors” (MERCK SHARP & DOHME CORP., priority 2017, dated 2022).
Like-named read-outs stand apart in the source and are kept apart here.

Experiments:
TDO = TDO (Homo sapiens, UniProt P48775)
Experimental: TDO Cellular Assay in Frozen SW48 Cells
SW48 cells were cultured in complete RPMI culture medium (90% RPMI, 10% heat-inactivated fetal bovine serum).
SW48 and A2780 cells were dispensed to the respective wells of 384-well assay plates containing the compounds. The plates were incubated for about 48 hours at a 37° C., 5% CO2 incubator. Afterwards, 12 μL of 0.5 M ethyl isonipecotate (Sigma Aldrich, Cat #E33505) in dimethyl sulfoxide were added into each well and the plates were sealed and incubated at 37° C. without CO2 overnight. The plates were centrifuged for 1 minute at 200×g. The resulting fluorescence was measured in a Spectramax plate reader (Molecular Devices) with a 400 nm excitation filter and a 510 nm emission filter.
The fluorescence intensity of each well was corrected for the background observed in wells with A2780 cells and was expressed as a fraction of the intensity observed in wells of SW48 cells and DMSO only. Potencies were calculated by linear least squares fit to the four parameter logistic IC50 equation.

IDO1 [1] = target: T1, IDO1 (Homo sapiens, UniProt P14902); assay: IDO1 Cellular Assay in Hela Cells Stimulated with IFNγ; settings: Hela IC50 (nM), Hela cells stimulated with IFNγ 100 ng/mL, 300 uM L-tryptophan, about 48 hours; form screened: Neutral
T1 sequence (P14902 whole entry): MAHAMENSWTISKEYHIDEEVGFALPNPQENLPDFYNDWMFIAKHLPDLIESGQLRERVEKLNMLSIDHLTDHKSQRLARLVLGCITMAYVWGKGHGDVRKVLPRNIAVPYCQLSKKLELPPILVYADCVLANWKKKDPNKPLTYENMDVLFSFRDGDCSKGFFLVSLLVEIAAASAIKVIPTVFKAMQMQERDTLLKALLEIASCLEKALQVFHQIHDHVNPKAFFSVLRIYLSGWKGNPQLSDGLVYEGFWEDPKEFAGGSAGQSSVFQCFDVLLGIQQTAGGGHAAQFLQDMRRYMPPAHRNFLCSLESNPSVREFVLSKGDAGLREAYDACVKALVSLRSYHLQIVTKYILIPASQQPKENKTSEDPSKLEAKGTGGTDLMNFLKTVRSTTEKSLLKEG
Experimental: Hela cells were cultured in complete Hela culture medium (90% EMEM, 10% heat-inactivated fetal bovine serum) and expanded to about 1×10^9 cells. The cells were then collected and frozen down at 1×10^7 cells/vial in 1 mL frozen medium (90% complete Hela culture medium, 10% DMSO)
Compounds to be tested were serially diluted in ten 3-fold steps in DMSO starting from 10 mM DMSO stocks in Echo low volume plate(s).
Hela cells with and without IFNγ were dispensed to the respective wells of 384-well assay plates containing the compounds. The plates were incubated for about 48 hours at a 37° C., 5% CO2 incubator. Afterwards, 12 mL of 0.5 M methyl isonipecotate in dimethyl sulfoxide were added into each well and the plates were sealed and incubated at 37° C. without CO2 overnight. The plates were centrifuged for 1 min at 200×g. The resulting fluorescence was measured in a Spectramax plate reader (Molecular Devices) with a 400 nm excitation filter and a 510 nm emission filter.
Potencies were calculated by linear least squares fit to the four parameter logistic IC50 equation.

IDO1 [2] = target: T1, IDO1; assay: IDO1 Human Whole Blood Assay; type: cell-based; set-up: Human whole blood was drawn in sodium heparin coated tubes from healthy internal donors; from tissue; host or cells: human whole blood from healthy donors, stimulated with LPS and IFNγ; settings: LPS and IFNγ 100 ng/mL, 18 h, kynurenine by LC/MS/MS, form screened: Neutral
Experimental: IDO1 Human Whole Blood Assay
LPS and IFNγ was prepared in RPMI to a 10× of final conc. (1000 ng/mL), final concentration is 100 ng/mL.
Human whole blood was drawn in sodium heparin coated tubes from healthy internal donors. […] of blood was transferred to each of the wells of a v-bottom 96 well plate. […] of compound was transferred from intermediate dilution plate, and incubated for 15 min. 30 μL from stimulants was then transferred to blood and mixed thoroughly. Plate was covered with breathable membrane and incubated at 37° C. for overnight (18 h).
On day 2 isotope labeled standard of kynurenine and tryptophan was made in water at 10× concentration and […] was added to the blood at […] final concentration. The assay plates were centrifuged at 300×G for 10 min with no brake to separate plasma from red blood cells. […] of plasma samples was removed without disturbing red blood cells. Plasma was diluted with RPMI in 1:1 ratio and proteins were precipitated out with two volume of Acetonitrile. The plates was centrifuged at 4000×G for 60 min. 20 mL of supernatant was carefully transferred to a 384 well plate contain 40 mL of 0.1% formic acid in water and analyzed by LC/MS/MS.
LC/MS/MS analyses were performed using Thermo Fisher's LX4-TSQ Quantum Ultra system. This system consists of four Agilent binary high-performance liquid chromatography (HPLC) pumps and a TSQ Quantum Ultra triple quadruple MS/MS instrument. For each sample, […] were injected onto an Atlantis T3 column (2.1 mm×150 mm, […]) from Waters. The mobile phase gradient pumped at 0.8 mL/min was used to elute the analytes from the column at 25° C. […] Mobile phase A consisted of 0.1% formic acid in water. Mobile phase B consisted of 0.1% of formic acid in acetonitrile. Data was acquired in positive mode using a HESI interface. […] Compounds were titrated and IC50's were calculated by 4 parameter sigmoidal curve fitting formula.

[3] = read-out: SW48 IC50, SW48 cells, 300 uM L-tryptophan, about 48 hours, form screened: Neutral

Chain of TDO (P48775 whole entry): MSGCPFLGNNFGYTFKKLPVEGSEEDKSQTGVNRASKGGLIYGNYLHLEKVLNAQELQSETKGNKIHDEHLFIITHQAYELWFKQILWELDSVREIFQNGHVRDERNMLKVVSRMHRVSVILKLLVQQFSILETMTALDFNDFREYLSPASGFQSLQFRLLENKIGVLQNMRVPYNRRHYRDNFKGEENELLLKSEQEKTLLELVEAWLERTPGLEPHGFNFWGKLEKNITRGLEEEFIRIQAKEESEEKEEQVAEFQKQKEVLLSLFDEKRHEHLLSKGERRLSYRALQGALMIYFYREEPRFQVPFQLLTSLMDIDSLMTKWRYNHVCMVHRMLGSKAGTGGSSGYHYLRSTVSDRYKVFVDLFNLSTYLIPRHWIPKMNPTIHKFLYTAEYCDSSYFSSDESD

Structure (SMILES)	IC50 (TDO; [3]) [nM]	IC50 (IDO1 [1]) [nM]	IC50 (IDO1 [2]) [nM]	IC50 (TDO) [nM]
CC1CC1NC(=O)C1(c2ccc(NC(=O)c3cccc(Cl)c3)cc2)COC1 (single isomer, unassigned) [Example 9, 3-{4-[(3-chlorobenzene-1-carbonyl)amino]phenyl}-N-(2-methylcyclo-propyl)oxetane-3-carboxamide]	≥ 10000	216		
CC1CC1NC(=O)C1(c2ccc(NC(=O)c3cccc(Cl)c3)cc2)COC1 (single isomer, unassigned) [Example 4, 3-{4-[(3-chlorobenzene-1-carbonyl)amino]phenyl}-N-(2-methylcyclopropyl)oxetane-3-carboxamide]	≥ 10000	12	324	
O=C(Nc1ccc(C2(C(=O)Nc3ccc(F)cc3)COC2)cc1)c1cccc(Cl)c1F [Example 3, 3-{4-[(3-chloro-2-fluorobenzene-1-carbonyl)amino]phenyl}-N-(4-fluorophenyl)oxetane-3-carboxamide]		3		≥ 10000
Cc1cc(C2(C(=O)Nc3ccc(F)cc3)COC2)ncc1NC(=O)c1cccc(Cl)c1 [Example 17, 3-{5-[(3-chlorobenzene-1-carbonyl)amino]-4-methylpyridin-2-yl}-N-(4-fluorophenyl)oxetane-3-carboxamide]		6		
O=C(Nc1ccc(C2(C(=O)NCC3CC3)COC2)cc1)c1cccc(Cl)c1 [Example 7, 3-{4-[(3-chlorobenzene-1-carbonyl)amino]phenyl}-N-(cyclopropyl-methyl)oxetane-3-carboxamide]		56		≥ 10000
Cc1cc(NC(=O)c2cccc(Cl)c2)cnc1C1(C(=O)Nc2ccc(F)cc2)COC1 [Example 19, 3-{5-[(3-chlorobenzene-1-carbonyl)amino]-3-methylpyridin-2-yl}-N-(4-fluorophenyl)oxetane-3-carboxamide]		205		
CC1CC1NC(=O)C1(c2ccc(NC(=O)c3cccc(Cl)c3)cc2)COC1 (single isomer, unassigned) [Example 8, 3-{4-[(3-chlrobenzene-1-carbonyl)amino]phenyl}-N-(2-methylcyclo-propyl)oxetane-3-carboxamide]		85		≥ 10000
Cc1cc(C2(C(=O)Nc3ccc(F)cc3)COC2)ncc1NC(=O)c1cccc(C#N)c1 [Example 18, 3-{5-[(3-cyanobenzene-1-carbonyl)amino]-4-methylpyridin-2-yl}-N-(4-fluorophenyl)oxetane-3-carboxamide]		58		
CCCNC(=O)C1(c2ccc(NC(=O)c3cccc(Cl)c3)cc2)COC1 [Example 5, 3-{4-[(3-chlorobenzene-1-carbonyl)amino]phenyl}-N-propyloxetane-3-carboxamide]		25	1530	
O=C(Nc1ccc(C2(C(=O)NCCC(F)(F)F)COC2)cc1)c1cccc(Cl)c1 [Example 6, 3-{4-[(3-chlorobenzene-1-carbonyl)amino]phenyl}-N-(3,3,3-trifluoropropyl)oxetane-3-carboxamide]		51		≥ 10000
N#Cc1cccc(C(=O)Nc2ccc(C3(C(=O)Nc4ccc(F)cc4)COC3)nc2)c1 [Example 20, 3-{5-[(3-cyanobenzene-1-carbonyl)amino]pyridin-2-yl}-N-(4-fluorophenyl)oxetane-3-carboxamide]		3	438	
CC1CC1NC(=O)C1(c2ccc(NC(=O)c3cccc(Cl)c3)cc2)COC1 (single isomer, unassigned) [Example 10, 3-{4-[(3-chlorobenzene-1-carbonyl)amino]phenyl}-N-(2-methylcyclo-propyl)oxetane-3-carboxamide]	≥ 10000	352		
